# According to article PMC3437492 (British Journal of Pharmacology, 2012):
# Values joined by “and” are separate entries in the source; they are usually repeats but may differ in a detail not shown here. Identical values can stand only once. Like-named read-outs stand apart in the source and are kept apart here.
# T1: choline/ethanolamine phosphotransferase (CEPT) (Plasmodium falciparum, UniProt C6KTB9)
# T1 sequence (C6KTB9 1-391): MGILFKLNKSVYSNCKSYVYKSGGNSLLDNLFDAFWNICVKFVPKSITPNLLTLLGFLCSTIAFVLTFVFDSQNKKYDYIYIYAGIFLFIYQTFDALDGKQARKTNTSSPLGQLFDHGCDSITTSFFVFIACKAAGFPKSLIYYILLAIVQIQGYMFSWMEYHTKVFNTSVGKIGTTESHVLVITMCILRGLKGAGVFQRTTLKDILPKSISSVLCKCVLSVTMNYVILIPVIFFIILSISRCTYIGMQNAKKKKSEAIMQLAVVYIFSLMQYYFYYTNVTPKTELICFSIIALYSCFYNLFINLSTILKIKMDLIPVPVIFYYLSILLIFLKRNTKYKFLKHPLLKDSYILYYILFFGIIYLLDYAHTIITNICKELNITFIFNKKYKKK
# T2: choline kinase (CK) (Plasmodium falciparum, UniProt Q8IM71)
# T2 sequence (Q8IM71 1-440): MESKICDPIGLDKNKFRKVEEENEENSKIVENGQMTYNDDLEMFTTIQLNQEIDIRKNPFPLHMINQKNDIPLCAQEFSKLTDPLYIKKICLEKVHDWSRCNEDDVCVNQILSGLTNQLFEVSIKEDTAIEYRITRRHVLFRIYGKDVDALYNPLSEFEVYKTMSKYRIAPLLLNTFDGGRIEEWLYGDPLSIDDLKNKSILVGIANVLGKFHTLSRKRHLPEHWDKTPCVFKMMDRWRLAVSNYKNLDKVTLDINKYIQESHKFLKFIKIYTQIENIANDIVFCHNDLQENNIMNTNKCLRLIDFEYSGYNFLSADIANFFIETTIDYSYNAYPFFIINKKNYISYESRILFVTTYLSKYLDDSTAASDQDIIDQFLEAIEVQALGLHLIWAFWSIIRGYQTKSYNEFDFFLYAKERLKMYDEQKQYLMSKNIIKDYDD
# B1: choline kinase (CK) (Plasmodium falciparum 3D7) (protein)
# chain: MESKICDPIGLDKNKFRKVEEENEENSKIVENGQMTYNDDLEMFTTIQLNQEIDIRKNPFPLHMINQKNDIPLCAQEFSKLTDPLYIKKICLEKVHDWSRCNEDDVCVNQILSGLTNQLFEVSIKEDTAIEYRITRRHVLFRIYGKDVDALYNPLSEFEVYKTMSKYRIAPLLLNTFDGGRIEEWLYGDPLSIDDLKNKSILVGIANVLGKFHTLSRKRHLPEHWDKTPCVFKMMDRWRLAVSNYKNLDKVTLDINKYIQESHKFLKFIKIYTQIENIANDIVFCHNDLQENNIMNTNKCLRLIDFEYSGYNFLSADIANFFIETTIDYSYNAYPFFIINKKNYISYESRILFVTTYLSKYLDDSTAASDQDIIDQFLEAIEVQALGLHLIWAFWSIIRGYQTKSYNEFDFFLYAKERLKMYDEQKQYLMSKNIIKDYDD
# Tests used:
# [1] = target: T1, choline/ethanolamine phosphotransferase (CEPT)
# [2] = tested on: NA biosynthesis in P. falciparum-infected erythrocytes; test: Effect on [3H]-hypoxanthine incorporation into nucleic acids; format: cell-based; conditions: for IC50: Plasmodium falciparum, Erythrocyte
# [3] = target: CTP:phosphocholine cytidylyltransferase (CCT) (Plasmodium falciparum, UniProt Q8IEE9); test: CCT assay; format: biochemical
# [4] = tested on: parasite poly-specific cation carrier; conditions: for Type of inhibition: inhibition of albitiazolium entry
# [5] = tested on: erythrocyte choline carrier; conditions: normal erythrocytes, 37°C
# [6] = tested on: parasite choline transporter (poly-specific cation transporter); test: Choline entry into isolated; format: cell-based, P. falciparum
# [7] = tested on: P. falciparum-infected erythrocytes; test: Total choline entry into P. falciparum-infected erythrocytes; format: cell-based; conditions: no furosemide
# choline kinase (CK) [8] = target: T2, choline kinase (CK)
# [9] = tested on: erythrocyte choline carrier; test: Carrier-mediated choline entry into IRBC in the presence of 150 µM furosemide; format: cell-based, human
# human plasma-proteins = conditions: at 20 ng·mL^−1; no saturation until 5000 ng·mL^−1; ref unpublished observations; cited from earlier work
# [10] = target: T1, choline/ethanolamine phosphotransferase (CEPT); test: biochemical; conditions: 0.5 h, read-out: Concentration for complete inhibition
# [11] = tested on: P. falciparum asexual blood stages; conditions: ref Vial et al., 2004; cited from earlier work
# P. falciparum 3D7 strain = format: cell-based
# [12] = tested on: PE biosynthesis in P. falciparum-infected erythrocytes; test: Effect on [3H]-ethanolamine incorporation into PL; format: cell-based; conditions: for IC50: read-out: PE50
# choline kinase (CK) [13] = target: T2, choline kinase (CK); test: biochemical
# P. falciparum-IRBC = conditions: ref Wein et al., cited from earlier work
# [14] = tested on: furosemide-sensitive NPP of P. falciparum IRBC; test: Albitiazolium entry into P. falciparum-infected erythrocytes; format: cell-based
# normal erythrocytes = test: Albitiazolium entry into normal erythrocytes; format: cell-based, human; conditions: 30 µM albitiazolium, 8 min, 37°C
# [15] = substrate: C[N+](C)(C)CCO; test: cells, lysate or membranes named; conditions: other: CK; saturating ATP; pH 7.9
# CTP:phosphocholine cytidylyltransferase (CCT), sequence (Q8IEE9 1-896): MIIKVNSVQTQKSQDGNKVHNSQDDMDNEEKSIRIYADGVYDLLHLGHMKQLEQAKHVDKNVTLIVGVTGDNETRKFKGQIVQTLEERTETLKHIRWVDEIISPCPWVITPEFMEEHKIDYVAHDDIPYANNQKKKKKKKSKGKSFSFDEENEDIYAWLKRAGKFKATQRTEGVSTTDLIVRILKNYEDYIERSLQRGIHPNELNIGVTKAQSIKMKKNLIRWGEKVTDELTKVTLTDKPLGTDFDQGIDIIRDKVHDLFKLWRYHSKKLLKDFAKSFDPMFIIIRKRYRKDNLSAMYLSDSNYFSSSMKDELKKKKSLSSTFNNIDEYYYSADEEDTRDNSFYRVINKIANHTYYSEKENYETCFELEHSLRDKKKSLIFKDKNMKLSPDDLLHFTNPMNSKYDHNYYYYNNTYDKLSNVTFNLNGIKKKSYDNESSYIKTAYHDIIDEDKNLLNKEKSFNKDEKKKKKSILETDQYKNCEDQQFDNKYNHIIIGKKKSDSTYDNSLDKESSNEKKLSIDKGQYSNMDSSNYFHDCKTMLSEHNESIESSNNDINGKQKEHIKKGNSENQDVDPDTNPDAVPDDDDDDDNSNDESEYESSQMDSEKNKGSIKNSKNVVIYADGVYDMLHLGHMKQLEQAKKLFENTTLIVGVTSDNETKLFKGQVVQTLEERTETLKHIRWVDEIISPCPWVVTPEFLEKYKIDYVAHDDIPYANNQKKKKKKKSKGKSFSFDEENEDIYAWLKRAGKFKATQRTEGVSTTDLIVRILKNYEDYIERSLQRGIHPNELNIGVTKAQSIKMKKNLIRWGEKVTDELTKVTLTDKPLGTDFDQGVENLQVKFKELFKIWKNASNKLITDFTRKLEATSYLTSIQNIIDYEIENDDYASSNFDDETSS
molecule,measurement,setting,value
C[N+](C)(C)CCOP(=O)(O)OP(=O)([O-])OC[C@H]1O[C@@H](n2ccc(N)nc2=O)[C@H](O)[C@@H]1O [CDP–choline],Vmax,[1],17.0 ± 1.5 pmol per 10^7 IRBC·min^−1
"N=C(N)c1ccc(OCCCCCOc2ccc(C(=N)N)cc2)cc1 [pentamidine, reference compound]",Effect on NA and PC synthesis,"[2]; same conditions as albitiazolium, data not shown",affected primarily NA synthesis and not PC synthesis
C[N+](C)(C)CCOP(=O)(O)O [phosphocholine],Vmax,[3]; CCT,5.2 ± 1.4 pmol per 10^7 IRBC·min^−1
same,Km,"[3]; read-out: Km for choline-containing substrate, CCT, saturating CTP",511 ± 24.8 µM
C[N+](C)(C)CCO [choline],Type of inhibition,[4],competitive inhibition
same,Type of inhibition,[4]; listed as Choline,Competitive
same,Ki,"[4]; read-out: Ki on albitiazolium entry into parasites, Lineweaver–Burk",321 µM
same,Vmax of choline entry,[5],0.43 ± 0.05 pmol per 10^7 RBC·min^−1
same,Km,"[5]; read-out: Km of choline entry, n= 4",12.2 ± 2.2 µM
same,Vmax of parasite choline entry,[6]; Table 3,23.3 ± 4.5 pmol per 10^7 IRBC·min^−1
same,Vmax of choline entry,[6]; free parasites (Table 2),23.3 ± 4.5 pmol per 10^7 cells·min^−1
same,Km,"[6]; read-out: Km of choline entry, saponin-freed parasites, 10 min, 37°C",18.5 ± 3.3 µM
same,Choline uptake rate,[7]; external concentration of 80 µM choline,1.5 pmol per 10^7 IRBC·min^−1
same,Vmax,choline kinase (CK) [8],63.3 ± 11.6 pmol per 10^7 IRBC·min^−1
same,Vmax of choline entry,[9]; IRBC with 150 µM furosemide,0.69 ± 0.23 pmol per 10^7 IRBC·min^−1 and 0.7 ± 0.2 pmol per 10^7 IRBC·min^−1
same,Km,"[9]; read-out: Km of choline entry, IRBC with 150 µM furosemide",11 ± 2.4 µM
"Cc1c(CCO)sc[n+]1CCCCCCCCCCCC[n+]1csc(CCO)c1C.[Br-].[Br-] [albitiazolium, 3,3′-(dodecane-1,12-diyl)bis[5-(2-hydroxyethyl)-4-methyl-1,3-thiazol-3-ium] dibromide]",Vmax of albitiazolium entry,[4]; free parasites (Table 2),6.1 ± 1.1 pmol per 10^7 cells·min^−1
same,Vmax of albitiazolium entry,"[4]; isolated parasites, 10 min, 37°C",6.1 ± 1.1 pmol per 10^7 parasites·min^−1
same,Concentration for complete inhibition of choline entry,[6]; 15 µM choline,10 µM
same,Type of inhibition,[6]; inhibition of choline entry,Competitive
same,IC50,"[6]; read-out: IC50 on choline entry into parasites, 15 µM choline, 10 min",2.3 ± 0.2 µM
same,Ki,"[6]; read-out: Ki on choline entry into parasites, Lineweaver–Burk",0.53 µM
same,IC100,"[3]; 0.5 h, read-out: Concentration for complete inhibition",100000 µM
same,Binding to human plasma-proteins,human plasma-proteins,33%
same,IC100,[10],100000 µM
same,Concentration from which choline entry is significantly inhibited,[7]; 15 µM choline,4 µM
same,Concentration for complete inhibition of choline entry,"[7]; 15 µM choline, not reached",> 36 µM
same,Concentration effective at treating malaria in vitro,[11],~10 nM
same,Type of interaction with choline,P. falciparum 3D7 strain; combination with choline,highly antagonized
same,Type of interaction with ethanolamine,P. falciparum 3D7 strain; combination with ethanolamine,additive effect
same,Type of interaction with serine,P. falciparum 3D7 strain; combination with serine,additive effect
same,Decrease of antimalarial activity,P. falciparum 3D7 strain; in the presence of 6 mM choline,28 fold
same,IC50,"[12]; Plasmodium falciparum, Erythrocyte, 3 h",> 1000 µM
same,IC50,"[12]; Plasmodium falciparum, Erythrocyte",> 1000 µM
same,IC50,"[12]; schizont stage, 2 µM [3H]-ethanolamine, 3 h",> 1000 µM
same,IC50,"[12]; trophozoite stage, 2 µM [3H]-ethanolamine, 3 h",> 1000 µM
same,Effect on ethanolamine incorporation,[12]; up to 10 µM,no significant effect
same,IC50,choline kinase (CK) [13],1500 µM
same,Accumulation in P. falciparum-IRBC,"P. falciparum-IRBC; external concentration of 100 nM, unpublished observations",400 fold
same,cellular accumulation ratio (CAR),"P. falciparum-IRBC; infected erythrocytes at mature stages, in preparation",~400
same,IC50,"[2]; 3 h, read-out: NA50, ring stage, [3H]-hypoxanthine, 3 h",240 µM
same,IC50,"[2]; 3 h, read-out: NA50, schizont stage, [3H]-hypoxanthine, 3 h",160 µM
same,IC50,"[2]; 3 h, read-out: NA50, trophozoite stage, [3H]-hypoxanthine, 3 h",340 µM
same,IC50,"[2]; read-out: NA50, range over the three stages",160 to 340 µM
same,Concentrations affecting NA biosynthesis relative to PC50 values,"[2]; higher than the PC50, three stages",13- to 80 fold
same,Vmax of albitiazolium entry,"[14]; 8 min, 37°C",47.9 ± 4.9 pmol per 10^7 IRBC·min^−1
same,Km,"[14]; read-out: apparent Km of albitiazolium entry, 8 min, 37°C",20.6 ± 4.3 µM
same,Concentration for complete inhibition,choline kinase (CK) [8],100 mM
same,Concentration for complete inhibition of choline entry,"[9]; 15 µM choline, 150 µM furosemide",12 µM
same,Type of inhibition,[9]; 150 µM furosemide,competitive inhibition
same,Ki,"[9]; read-out: Ki on choline entry, 150 µM furosemide, Lineweaver–Burk",3.1 µM
same,Albitiazolium entry rate,normal erythrocytes,lower than 0.01 pmol per 10^7 RBC·min^−1
B1,Km,[15],31.2 ± 4.1 µM
